The subject of one series is Diabrotica balteata. The series can be described thus: Diabrotica balteata spray test. As to conditions: Diabrotica balteata, 168 h; 100 g/ha (=32 μg/cavity), wheat grains, after 7 days; read-out: efficacy. Format: in vivo. From the text:
Diabrotica balteata—Spray Test Solvent: 78 parts by weight of acetone • • 1.5 parts by weight of dimethylformamide Emulsifier: alkylaryl polyglycol ether An appropriate active ingredient formulation is produced by dissolving 1 part by weight of active ingredient with the stated parts by weight of solvent and making the solution up to the desired concentration with water containing an emulsifier concentration of 1000 ppm. Further test concentrations are produced by diluting the formulation with emulsifier-containing water. Pre-swollen wheat grains (Triticum aestivum) are incubated in a multiwell plate filled with agar and a little water for one day (5 seed grains per cavity). The germinated wheat grains are sprayed with an active ingredient formulation of the desired concentration. Subsequently, each cavity is infected with 10-20 beetle larvae of Diabrotica balteata. After 7 days, efficacy in % is determined. 100% means that all wheat plants have grown as in the untreated, uninfected control; 0% means that no wheat plant has grown.

A further series has as its system Tetranychus urticae. Description: Tetranychus urticae spray test, OP-resistant. Format: in vivo. The note with it: 500 g/ha, bean leaf discs, after 6 days. From the text: Tetranychus urticae—Spray Test, OP-Resistant
Solvent: 78.0 parts by weight of acetone • • 1.5 parts by weight of dimethylformamide
Emulsifier: alkylaryl polyglycol ether
An appropriate active ingredient formulation is produced by dissolving 1 part by weight of active ingredient with the stated parts by weight of solvent and making the solution up to the desired concentration with water containing an emulsifier concentration of 1000 ppm. Further test concentrations are produced by diluting the formulation with emulsifier-containing water.
Discs of bean leaves (Phaseolus vulgaris) infested with all stages of the greenhouse red spider mite (Tetranychus urticae) are sprayed with an active ingredient formulation of the desired concentration.
After 6 days, efficacy in % is determined. 100% means that all the spider mites have been killed; 0% means that no spider mites have been killed.

Series [1] deals with Nezara viridula. The series can be described thus: Nezara viridula spray test (plants sprayed, then infected). Format: in vivo. As to conditions: 500 g/ha, barley plants, after 4 days. From the text: (§1) Nezara viridula—Spray Test Solvent: 78.0 parts by weight of acetone • • 1.5 parts by weight of dimethylformamide Emulsifier: alkylaryl polyglycol ether An appropriate active ingredient formulation is produced by dissolving 1 part by weight of active ingredient with the stated parts by weight of solvent and making the solution up to the desired concentration with water containing an emulsifier concentration of 1000 ppm. Further test concentrations are produced by diluting the formulation with emulsifier-containing water. Barley plants (Hordeum vulgare) are sprayed with an active ingredient formulation of the desired concentration and are infected with larvae of the Southern green shield bug (Nezara viridula). After 4 days, efficacy in % is determined. 100% means that all of the shield bugs have been killed; 0% means that none of the shield bugs have been killed.

Series [2] concerns Spodoptera frugiperda. The series can be described thus: Spodoptera frugiperda spray test (maize leaf discs). The note with it: Spodoptera frugiperda, foliar, 168 h, after 7 days, read-out: efficacy. Format: in vivo. From the text: Spodoptera Frusiperda—Spray Test Solvent: 78.0 parts by weight of acetone • • 1.5 parts by weight of dimethylformamide Emulsifier: alkylaryl polyglycol ether An appropriate active ingredient formulation is produced by dissolving 1 part by weight of active ingredient with the stated parts by weight of solvent and making the solution up to the desired concentration with water containing an emulsifier concentration of 1000 ppm. Further test concentrations are produced by diluting the formulation with emulsifier-containing water. Leaf discs of maize (Zea mays) are sprayed with an active ingredient formulation of the desired concentration and, after drying, populated with caterpillars of the fall armyworm (Spodoptera frugiperda). After 7 days, efficacy in % is determined. 100% means that all the caterpillars have been killed; 0% means that no caterpillar has been killed.

In the next series the test system is Myzus persicae. The series can be described thus: Myzus persicae spray test. It is filed as in vivo. As to conditions: 20 ppm, bell pepper plants, after 6 days. From the text:
Myzus persicae—Spray Test Solvent: 14 parts by weight of dimethylformamide Emulsifier: alkylaryl polyglycol ether An appropriate active ingredient formulation is produced by dissolving 1 part by weight of active ingredient with the stated parts by weight of solvent and making the solution up to the desired concentration with water containing an emulsifier concentration of 1000 ppm. Further test concentrations are produced by diluting the formulation with emulsifier-containing water. If the addition of ammonium salts or/and penetrants is required, these are each added in a concentration of 1000 ppm to the formulation solution. Bell pepper plants (Capsicum annuum) severely infested with the green peach aphid (Myzus persicae) are treated by spraying with the active ingredient formulation in the desired concentration. After 6 days, the kill rate in % is determined. 100% means that all of the aphids have been killed; 0% means that none of the aphids have been killed.

The next series relates to Meloidogyne incognita. Description: Meloidogyne incognita test. Format: in vivo. The note with it: Meloidogyne incognita, 336 h, lettuce, gall formation after 14 days, read-out: nematicidal efficacy. From the text: Meloidogyne incognita Test Solvent: 125.0 parts by weight of acetone An appropriate active ingredient formulation is produced by mixing 1 part by weight of active ingredient with the stated amount of solvent and diluting the concentrate to the desired concentration with water. Vessels are filled with sand, active ingredient solution, an egg/larvae suspension of the southern root-knot nematode (Meloidogyne incognita) and lettuce seeds. The lettuce seeds germinate and the plants develop. The galls develop on the roots. After 14 days, the nematicidal efficacy in % is determined by the formation of galls. 100% means that no galls were found; 0% means that the number of galls on the treated plants corresponds to the untreated control.

The test system of series [3] is Spodoptera frugiperda. The series can be described thus: Spodoptera frugiperda spray test (cotton leaves). It is filed as in vivo. As to conditions: 4 ppm, after 7 days. From the text:
Spodoptera Frustiperda—Spray Test Solvent: 14 parts by weight of dimethylformamide Emulsifier: alkylaryl polyglycol ether An appropriate active ingredient formulation is produced by dissolving 1 part by weight of active ingredient with the stated parts by weight of solvent and making the solution up to the desired concentration with water containing an emulsifier concentration of 1000 ppm. Further test concentrations are produced by diluting the formulation with emulsifier-containing water. If the addition of ammonium salts or/and penetrants is required, these are each added in a concentration of 1000 ppm to the formulation solution. Cotton leaves (Gossypium hirsutum) are sprayed with an active ingredient formulation of the desired concentration and populated with caterpillars of the armyworm (Spodoptera frugiperda). After 7 days, the kill in % is determined. 100% means that all the caterpillars have been killed; 0% means that none of the caterpillars have been killed.

Series [4] can be described thus: log P by HPLC on reversed-phase column (C18). It is filed as physicochemical. The note with it: LC-UV, neutral range, ammonium acetate/acetonitrile, read-out: log P (neutral). Here is the method: log P Values The log P values were determined according to EEC Directive 79/831 Annex V.A8 by HPLC (high-performance liquid chromatography) on a reversed-phase column (C18) using the following methods: ^[a] […] Calibration was carried out using straight-chain alkan-2-ones (having 3 to 16 carbon atoms) with known log P values. The values between successive alkanones are determined by linear regression.

The test system of series [5] is Nezara viridula. Description: Nezara viridula spray test (infected barley plants sprayed). Format: in vivo. The note with it: 100 g ai/ha, after 4 days.
Source text: as §1, with “52.5” for “78.0”, “7” for “• 1.5”, “water. If the addition of ammonium salts or/and penetrants is required, these are each added in a concentration of 1000 ppm to the formulation solution.” for “water.”, “vulgare) infected with larvae of the Southern green shield bug (Nezara viridula)” for “vulgare)”, “concentration.” for “concentration and are infected with larvae of the Southern green shield bug (Nezara viridula).”

As for `CCS(=O)(=O)c1ccc(-n2ncn(-c3ccc(C(=O)OC)cc3)c2=O)nc1-c1nc2cc(C(F)(F)C(F)(F)F)cnc2n1C` [Example I-03], the pest or weed control at 100 g/ha in the series with Diabrotica balteata stood at 100%. The efficacy in the series with Tetranychus urticae is given as 90%.
`CCS(=O)(=O)c1ccc(-n2ncn(-c3ccc(C#N)cc3)c2=O)nc1-c1nc2cc(C(F)(F)C(F)(F)F)nnc2n1C` [Example I-06]: the efficacy with Nezara viridula [1] is recorded as 100%. The pest or weed control at 100 g/ha in the series on Spodoptera frugiperda [2] and with Diabrotica balteata was 100% each time. Moreover, the “efficacy (kill rate)” value in the series on Myzus persicae amounted to 95%.
Consider `CCS(=O)(=O)c1ccc(-n2ncn(-c3ccc(F)cc3)c2=O)nc1-c1nc2cc(C(F)(F)C(F)(F)F)cnc2n1C` [Example I-02, 2-[5-Ethylsulfonyl-6-[3-methyl-6-(1,1,2,2,2-pentafluoroethyl)imidazo[4,5-b]pyridin-2-yl]-2-pyridyl]-4-(4-fluorophenyl)-1,2,4-triazol-3-one], for which, in the series on Meloidogyne incognita, the pest or weed control at 20 ppm was 100%. Moreover, the efficacy in the series with Nezara viridula [1] amounted to 100%. For the same compound, in the series on Spodoptera frugiperda [3], the “efficacy (kill)” value was 100%. For the same compound, the pest or weed control at 100 g/ha in the series on Diabrotica balteata came to 100%. In addition, the chromatographic logP in [4] amounted to 3.53.
For the compound `CCS(=O)(=O)c1ccc(-n2ncn(-c3cccc(F)c3)c2=O)nc1-c1nc2cc(C(F)(F)C(F)(F)F)nnc2n1C` [Example I-12], the efficacy with Nezara viridula [5] was determined as 100%. Besides, the pest or weed control at 20 ppm in the series with Meloidogyne incognita turned out to be 100%. Moreover, the pest or weed control at 100 g/ha in the series with Spodoptera frugiperda [2] and in the series with Diabrotica balteata was 100% throughout. The “efficacy (kill rate)” value with Myzus persicae came to 98%.

For the origin of these results see patent publication US20240294533A1, “2-(HET)ARYL-SUBSTITUTED CONDENSED HETEROCYCLE DERIVATIVES AS PEST CONTROL AGENTS” (Bayer Aktiengesellschaft, priority 2021, published 2024).
